In US11566007B2, “Ras inhibitors” (Revolution Medicines, Inc., priority 2019, dated 2023):
Like-named read-outs stand apart in the source and are kept apart here.

Legend:
KRAS G12D = KRAS G12D (Homo sapiens (Human), UniProt P01116+P62937, G12D); assay: Ras-Raf (BRAF RBD) disruption / FRET / MOA assay, KRAS G12D; format: biochemical; conditions: Ras-Raf disruption/FRET/MOA assay; class symbols; read-out: KRAS G12D FRET data IC50
Method in brief: (§1)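 A 10-point, 3-fold dilution series topping at 30 μM final was incubated 3 h at 25° C with the Ras/cyclophilin A/BRAF RBD mixture.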

K-Ras G13C = K-Ras G13C (Homo sapiens (Human), UniProt P01116+P62937, G13C); assay: Ras-Raf (BRAF RBD) disruption / FRET / MOA assay, KRAS G13C; format: biochemical; conditions: KRAS G13C; Ras-Raf disruption/FRET/MOA assay; read-out: IC50* KRAS G13C FRET data
Sequence of K-Ras G13C (P01116-2 other isoform, or with tags, fused parts or gaps G13C): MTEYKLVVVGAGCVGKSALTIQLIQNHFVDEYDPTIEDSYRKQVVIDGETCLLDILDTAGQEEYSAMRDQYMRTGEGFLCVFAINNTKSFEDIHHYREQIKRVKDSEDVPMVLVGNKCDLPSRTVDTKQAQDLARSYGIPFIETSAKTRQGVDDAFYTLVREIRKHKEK
Sequence of K-Ras G13C (P62937 whole entry): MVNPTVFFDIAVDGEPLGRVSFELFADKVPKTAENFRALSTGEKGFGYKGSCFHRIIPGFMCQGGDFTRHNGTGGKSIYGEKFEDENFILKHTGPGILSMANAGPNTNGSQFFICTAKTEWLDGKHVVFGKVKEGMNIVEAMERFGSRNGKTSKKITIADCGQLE
Method in brief: as §1

NRAS WT = NRAS WT (Homo sapiens (Human), UniProt P01111+P62937); assay: Ras-Raf (BRAF RBD) disruption / FRET / MOA assay, NRAS WT; format: biochemical; conditions: read-out: IC50* NRAS WT FRET data
Sequence of NRAS WT (P01111 whole entry, canonical isoform): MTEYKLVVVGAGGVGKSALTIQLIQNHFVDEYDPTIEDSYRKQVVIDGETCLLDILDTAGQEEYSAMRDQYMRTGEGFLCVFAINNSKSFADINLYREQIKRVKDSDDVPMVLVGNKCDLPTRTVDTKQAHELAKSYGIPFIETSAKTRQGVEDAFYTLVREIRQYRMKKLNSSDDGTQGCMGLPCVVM
Sequence of NRAS WT (P62937 whole entry, canonical isoform): as the sequence (P62937 whole entry) above
Protocol: (§2) The purpose of this biochemical assay is to measure the ability of test compounds to facilitate ternary complex formation between a nucleotide-loaded Ras isoform and cyclophilin A; the resulting ternary complex disrupts binding to a BRAF^RBD construct, inhibiting Ras signaling through a RAF effector.
(§3) […]. Compound is present in plate wells as a 10-point 3-fold dilution series starting at a final concentration of 30 μM. After incubation at 25° C. for 3 hours, a mixture of Anti-His Eu-W1024 and anti-GST allophycocyanin is then added to assay sample wells at final concentrations of 10 nM and 50 nM, respectively, and the reaction incubated for an additional 1.5 hours. […] Compounds that facilitate disruption of a Ras:RAF complex are identified as those eliciting a decrease in the TR-FRET ratio relative to DMSO control wells.
(§4) Note—The following protocol describes a procedure for monitoring disruption of K-Ras G12C (GMP-PNP) binding to BRAF^RBD by a compound of the invention. This protocol may also be executed substituting other Ras proteins or nucleotides.
(§5) The purpose of this biochemical assay was to measure the ability of test compounds to facilitate ternary complex formation between a nucleotide-loaded K-Ras isoform and Cyclophilin A; the resulting ternary complex disrupts binding to a BRAF^RBD construct, inhibiting K-Ras signaling through a RAF effector. Data is reported as IC50 values.
as §3, with “Compound was” for “Compound is”, “allophycocyanin was” for “allophycocyanin is”, “a K-Ras:RAF” for “a Ras:RAF”, “complex were” for “complex are”

NRAS Q61R = NRAS Q61R (Homo sapiens (Human), UniProt P01111+P62937, Q61R); assay: Ras-Raf (BRAF RBD) disruption / FRET / MOA assay, NRAS Q61R; format: biochemical; conditions: NRAS Q61R; Ras-Raf disruption/FRET/MOA assay; read-out: IC50* NRAS Q61R FRET data
Sequence of NRAS Q61R (P01111 whole entry Q61R): as the sequence (P01111 whole entry, canonical isoform) above, with Q61R counted along it
Sequence of NRAS Q61R (P62937 whole entry): as the sequence (P62937 whole entry) above
Protocol: as §2, §3, §4, §5
as §3, with “Compound was” for “Compound is”, “allophycocyanin was” for “allophycocyanin is”, “a K-Ras:RAF” for “a Ras:RAF”, “complex were” for “complex are”

KRAS WT = KRAS WT (Homo sapiens (Human), UniProt P01116+P62937); assay: Ras-Raf (BRAF RBD) disruption / FRET / MOA assay, KRAS WT; format: biochemical; conditions: read-out: IC50* KRAS WT FRET data
Sequence of KRAS WT (P01116-2 other isoform, or with tags, fused parts or gaps): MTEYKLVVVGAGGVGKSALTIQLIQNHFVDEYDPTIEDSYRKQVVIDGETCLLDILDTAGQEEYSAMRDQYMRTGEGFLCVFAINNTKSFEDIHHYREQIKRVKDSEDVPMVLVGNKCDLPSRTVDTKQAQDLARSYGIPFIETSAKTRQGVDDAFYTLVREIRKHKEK
Sequence of KRAS WT (P62937 whole entry): as the sequence (P62937 whole entry) above
Method in brief: as §1

K-Ras G12C = K-Ras G12C (Homo sapiens (Human), UniProt P01116+P62937, G12C); assay: Ras-Raf (BRAF RBD) disruption / FRET / MOA assay, KRAS G12C; format: biochemical; conditions: KRAS G12C; Ras-Raf disruption/FRET/MOA assay; read-out: IC50* KRAS G12C FRET data
Sequence of K-Ras G12C (P01116-2 other isoform, or with tags, fused parts or gaps G12C): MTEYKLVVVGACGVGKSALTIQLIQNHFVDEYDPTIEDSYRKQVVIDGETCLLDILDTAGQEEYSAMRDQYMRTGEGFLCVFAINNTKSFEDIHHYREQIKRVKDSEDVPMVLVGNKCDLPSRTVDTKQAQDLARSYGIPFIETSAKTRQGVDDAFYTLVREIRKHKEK
Sequence of K-Ras G12C (P62937 whole entry): as the sequence (P62937 whole entry) above
Method in brief: as §1

KRAS Q61H = KRAS Q61H (Homo sapiens (Human), UniProt P01116+P62937, Q61H); assay: Ras-Raf (BRAF RBD) disruption / FRET / MOA assay, KRAS Q61H; format: biochemical; conditions: Ras-Raf disruption/FRET/MOA assay; class symbols; read-out: KRAS Q61H FRET data IC50
Sequence of KRAS Q61H (P01116-2 other isoform, or with tags, fused parts or gaps Q61H): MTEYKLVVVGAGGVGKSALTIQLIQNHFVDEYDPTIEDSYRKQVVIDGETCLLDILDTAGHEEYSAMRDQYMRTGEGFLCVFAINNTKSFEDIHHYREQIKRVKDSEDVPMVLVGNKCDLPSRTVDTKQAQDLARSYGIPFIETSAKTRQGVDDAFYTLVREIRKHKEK
Sequence of KRAS Q61H (P62937 whole entry): as the sequence (P62937 whole entry) above
Protocol: as §2, §3, §4, §5
as §3, with “Compound was” for “Compound is”, “allophycocyanin was” for “allophycocyanin is”, “a K-Ras:RAF” for “a Ras:RAF”, “complex were” for “complex are”

KRAS G12S = KRAS G12S (Homo sapiens (Human), UniProt P01116+P62937, G12S); assay: Ras-Raf (BRAF RBD) disruption / FRET / MOA assay, KRAS G12S; format: biochemical; conditions: Ras-Raf disruption/FRET/MOA assay; class symbols; read-out: KRAS G12S FRET data IC50
Sequence of KRAS G12S (P01116-2 other isoform, or with tags, fused parts or gaps G12S): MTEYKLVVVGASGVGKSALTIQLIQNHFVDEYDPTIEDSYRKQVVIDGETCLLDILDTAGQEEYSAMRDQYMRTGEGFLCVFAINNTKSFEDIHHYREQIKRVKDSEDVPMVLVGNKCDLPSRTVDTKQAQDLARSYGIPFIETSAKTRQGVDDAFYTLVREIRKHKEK
Sequence of KRAS G12S (P62937 whole entry): as the sequence (P62937 whole entry) above
Method in brief: as §1

[1] = system: NCI-H358 cells (K-Ras G12C); assay: Potency assay: pERK in NCI-H358 cells; format: cell-based, human; conditions: Homo sapiens
Method in brief: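 Inhibition of cellular pERK after a 4 h treatment, detected by AlphaLISA or In-Cell Western. IC50 from a four-parameter concentration-response fit.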

KRAS G12V = KRAS G12V (Homo sapiens (Human), UniProt P01116+P62937, G12V); assay: Ras-Raf (BRAF RBD) disruption / FRET / MOA assay, KRAS G12V; format: biochemical; conditions: read-out: IC50* KRAS G12V FRET data
Sequence of KRAS G12V (P01116-2 other isoform, or with tags, fused parts or gaps G12V): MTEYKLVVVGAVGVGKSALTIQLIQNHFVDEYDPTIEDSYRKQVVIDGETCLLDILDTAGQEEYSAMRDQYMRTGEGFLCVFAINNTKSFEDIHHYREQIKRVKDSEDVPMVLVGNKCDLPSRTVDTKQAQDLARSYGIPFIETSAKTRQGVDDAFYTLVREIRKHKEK
Sequence of KRAS G12V (P62937 whole entry): as the sequence (P62937 whole entry) above
Method in brief: as §1

NRAS Q61K = NRAS Q61K (Homo sapiens (Human), UniProt P01111+P62937, Q61K); assay: Ras-Raf (BRAF RBD) disruption / FRET / MOA assay, NRAS Q61K; format: biochemical; conditions: NRAS Q61K; Ras-Raf disruption/FRET/MOA assay; read-out: IC50* NRAS Q61K FRET data
Sequence of NRAS Q61K (P01111 whole entry Q61K): as the sequence (P01111 whole entry, canonical isoform) above, with Q61K counted along it
Sequence of NRAS Q61K (P62937 whole entry): as the sequence (P62937 whole entry) above
Protocol: as §2, §3, §4, §5
as §3, with “Compound was” for “Compound is”, “allophycocyanin was” for “allophycocyanin is”, “a K-Ras:RAF” for “a Ras:RAF”, “complex were” for “complex are”

NRAS G12C = NRAS G12C (Homo sapiens (Human), UniProt P01111+P62937, G12C); assay: Ras-Raf (BRAF RBD) disruption / FRET / MOA assay, NRAS G12C; format: biochemical; conditions: read-out: IC50* NRAS G12C FRET data
Sequence of NRAS G12C (P01111 whole entry G12C): as the sequence (P01111 whole entry, canonical isoform) above, with G12C counted along it
Sequence of NRAS G12C (P62937 whole entry): as the sequence (P62937 whole entry) above
Method in brief: as §1

KRAS G13D = KRAS G13D (Homo sapiens (Human), UniProt P01116+P62937, G13D); assay: Ras-Raf (BRAF RBD) disruption / FRET / MOA assay, KRAS G13D; format: biochemical; conditions: read-out: IC50* KRAS G13D FRET data
Sequence of KRAS G13D (P01116-2 other isoform, or with tags, fused parts or gaps G13D): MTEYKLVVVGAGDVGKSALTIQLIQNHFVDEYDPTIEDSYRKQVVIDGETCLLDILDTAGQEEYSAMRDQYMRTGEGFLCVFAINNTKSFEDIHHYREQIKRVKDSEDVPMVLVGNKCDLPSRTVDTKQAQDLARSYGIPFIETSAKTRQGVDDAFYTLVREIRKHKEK
Sequence of KRAS G13D (P62937 whole entry): as the sequence (P62937 whole entry) above
Method in brief: as §1

[2] = NCI-H358, H358 KRAS G12C, read-out: pERK EC50

Sequence of KRAS G12D (P01116-2 other isoform, or with tags, fused parts or gaps G12D): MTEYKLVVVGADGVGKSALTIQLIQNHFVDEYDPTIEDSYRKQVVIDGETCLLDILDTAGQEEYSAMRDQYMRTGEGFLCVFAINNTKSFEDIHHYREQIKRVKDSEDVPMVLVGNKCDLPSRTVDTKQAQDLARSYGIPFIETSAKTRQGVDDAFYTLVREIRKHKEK
Sequence of KRAS G12D (P62937 whole entry): as the sequence (P62937 whole entry) above

| SMILES | IC50 (KRAS G12D) [nM] | IC50 (K-Ras G13C) [nM] | IC50 (NRAS WT) [nM] | IC50 (NRAS Q61R) [nM] | IC50 (KRAS WT) [nM] | IC50 (K-Ras G12C) [nM] | IC50 (KRAS Q61H) [nM] | IC50 (KRAS G12S) [nM] | EC50 [1, 2] [nM] | IC50 (KRAS G12V) [nM] | IC50 (NRAS Q61K) [nM] | IC50 (NRAS G12C) [nM] | IC50 (KRAS G13D) [nM] | EC50 ([1]; NCI-H358, read-out: pERK EC50) [nM] |
| --- | --- | --- | --- | --- | --- | --- | --- | --- | --- | --- | --- | --- | --- | --- |
| C=CC(=O)N1CC[C@H](C(=O)N(C)[C@H](C(=O)N[C@H]2CC3=CCCN(C3)c3ccc4c(c3)c(c(-c3cccnc3[C@H](C)OC)n4CC)CC(C)(C)COC(=O)[C@@H]3CCCN(N3)C2=O)C(C)C)C1 (atropisomer, axis not shown) [Example A486] | > 10000 | 1000 to 10000 | > 10000 | > 10000 | > 10000 | 100 to 1000 | > 10000 | > 10000 | < 5000 | > 10000 | > 10000 | 100 to 1000 | > 10000 |  |
| CO[C@@H](C)c1ncc(N2CCN(C)CC2)cc1-c1c2c3cc(ccc3n1CC(F)(F)F)-c1cccc(c1)C[C@H](NC(=O)[C@H](C(C)C)N(C)C(=O)C1(F)CCN(C(=O)C#CC(C)(C)N(C)C)CC1)C(=O)N1CCC[C@H](N1)C(=O)OCC(C)(C)C2 (atropisomer, axis not shown) [Example A542, 1-(4-(dimethylamino)-4-methylpent-2-ynoyl)-4-fluoro-N-((2S)-1-(((6^3S,4S)-1^2-(2-((S)-1-methoxyethyl)-5-(4-methylpiperazin-1-yl)pyridin-3-yl)-10,10-dimethyl-5,7-dioxo-1^1-(2,2,2-trifluoroethyl)-6^1,6^2,6^3,6^4,6^5,6^6-hexahydro-1^1H-8-oxa-1(5,3)-indola-6(1,3)-pyridazina-2(1,3)-benzenacycloundecaphane-4-yl)amino)-3-methyl-1-oxobutan-2-yl)-N-methylpiperidine-4-carboxamide] | 100 to 1000 | < 10 | 10 to 100 | 10 to 100 | 10 to 100 | < 10 | 10 to 100 | 10 to 100 | < 5000 | 10 to 100 | 10 to 100 | < 10 | 10 to 100 |  |
| CO[C@@H](C)c1ncccc1-c1c2c3cc(ccc3n1CC(F)(F)F)-c1csc(n1)C[C@H](NC(=O)[C@H](C(C)C)N(C)C(=O)N1C[C@@H]3OCCN(C(=O)/C=C/CF)[C@@H]3C1)C(=O)N1CCC[C@H](N1)C(=O)OCC(C)(C)C2 (atropisomer, axis not shown) [Example A571] | 1000 to 10000 | 10 to 100 | 100 to 1000 | 100 to 1000 | 100 to 1000 | 100 to 1000 | 100 to 1000 | 100 to 1000 | < 5000 | 100 to 1000 | 100 to 1000 | 100 to 1000 | 1000 to 10000 |  |
| CO[C@@H](C)c1ncccc1-c1c2c3cc(ccc3n1CC(F)(F)F)-c1csc(n1)C[C@H](NC(=O)[C@H](C(C)C)N(C)C(=O)N1C[C@@H]3OCCN(C(=O)/C=C/C(F)F)[C@@H]3C1)C(=O)N1CCC[C@H](N1)C(=O)OCC(C)(C)C2 (atropisomer, axis not shown) [Example A572] | 1000 to 10000 | 10 to 100 | 100 to 1000 | 100 to 1000 | 100 to 1000 | 10 to 100 | 100 to 1000 | 100 to 1000 | < 5000 | 100 to 1000 | 100 to 1000 | 10 to 100 | 1000 to 10000 |  |
| CO[C@@H](C)c1ncccc1-c1c2c3cc(ccc3n1CC(F)(F)F)-c1csc(n1)C[C@H](NC(=O)[C@H](C(C)C)N(C)C(=O)N1C[C@@H]3OCCN(C(=O)/C=C/CN(C)C)[C@@H]3C1)C(=O)N1CCC[C@H](N1)C(=O)OCC(C)(C)C2 (atropisomer, axis not shown) [Example A573] | 1000 to 10000 | 10 to 100 | 100 to 1000 | 100 to 1000 | 100 to 1000 | 10 to 100 | 100 to 1000 | 100 to 1000 | < 5000 | 1000 to 10000 | 100 to 1000 | 10 to 100 | 100 to 1000 |  |
| CO[C@@H](C)c1ncccc1-c1c2c3cc(ccc3n1CC(F)(F)F)-c1nc(nn1C)C[C@H](NC(=O)[C@H](C(C)C)N(C)C(=O)C1(F)CCN(C(=O)C#CC(C)(C)N(C)C)CC1)C(=O)N1CCC[C@H](N1)C(=O)OCC(C)(C)C2 (atropisomer, axis not shown) [Example A577] | 100 to 1000 | 10 to 100 | 10 to 100 | 10 to 100 | 100 to 1000 | < 10 | 10 to 100 | 10 to 100 | < 5000 | 100 to 1000 | 10 to 100 | < 10 | 100 to 1000 |  |
| C=CC(=O)N1CCO[C@@H]2CCN(C(=O)N(C)[C@H](C(=O)N[C@H]3Cc4nc(cs4)-c4ccc5c(c4)c(c(-c4cccnc4[C@H](C)OC)n5CC)CC(C)(C)COC(=O)[C@@H]4CCCN(N4)C3=O)C(C)C)C[C@@H]21 (atropisomer, axis not shown) [Example A581] | 1000 to 10000 | 100 to 1000 | 100 to 1000 | 100 to 1000 | 100 to 1000 | 10 to 100 | 100 to 1000 | 100 to 1000 | < 5000 | 100 to 1000 | 100 to 1000 | 10 to 100 | 100 to 1000 |  |
| CCn1c(-c2cccnc2[C@H](C)OC)c2c3cc(ccc31)-c1cccc(c1)C[C@H](NC(=O)[C@H](C(C)C)N1CC[C@]3(CCN(C(=O)C#C[C@H]4COCCN4C)C3)C1=O)C(=O)N1CCC[C@H](N1)C(=O)OCC(C)(C)C2 (atropisomer, axis not shown) [Example A592] | > 10000 | 1000 to 10000 | > 10000 | > 10000 | > 10000 | 10 to 100 | 1000 to 10000 | 1000 to 10000 |  | 1000 to 10000 | > 10000 | 10 to 100 | > 10000 | < 5000 |
| C=CC(=O)N1CCO[C@H]2CCN(C(=O)N(C)[C@H](C(=O)N[C@H]3Cc4nc(cs4)-c4ccc5c(c4)c(c(-c4cccnc4[C@H](C)OC)n5CC)CC(C)(C)COC(=O)[C@@H]4CCCN(N4)C3=O)C(C)C)C[C@@H]21 (atropisomer, axis not shown) [Example A609] | 100 to 1000 | 10 to 100 | 10 to 100 | 10 to 100 | 10 to 100 | < 10 | 10 to 100 | 10 to 100 | < 5000 | 10 to 100 | 10 to 100 | < 10 | 100 to 1000 |  |
